{"source": "patent US20110124683A1", "about": "“Use of CRTH2 Antagonist Compounds” (Oxagen Limited, priority 2007, published 2011)", "key": {"Human Th2 cells": {"system": "Human Th2 cells", "test": "Apoptosis challenge test (Annexin V-PE/PI flow cytometry)", "type": "cell-based", "conditions": "for IC50: Homo sapiens, 100 nM PGD2, absence of IL-2, 16 hrs, read-out: IC50 to the rescuing function of PGD2", "protocol": "Human Th2 cells were treated with 50 U/ml IL-2 or various concentrations of PGD2 in the absence of IL-2 for 16 hrs. The cells were stained with Annexin V-PE/PI and then analysed by FACSArray flow cytometer.\nHuman Th2 cells were treated in the absence of IL-2 with a medium containing 100 nM PGD2 and various concentrations of CRTH2 antagonistic compounds (Compounds 1, 2, 3, 4 and 5) for 16 hrs. The cells were stained with Annexin V-PE/PI and then analysed by FACSArray flow cytometer."}, "CRTH2 receptor": {"target": "T1, CRTH2 receptor (Homo sapiens, UniProt Q9Y5Y4)", "T1 construct": "expressed in transfected cells; host or cells: Chinese Hamster Ovary (CHO) cells", "T1 sequence (Q9Y5Y4 1-395)": "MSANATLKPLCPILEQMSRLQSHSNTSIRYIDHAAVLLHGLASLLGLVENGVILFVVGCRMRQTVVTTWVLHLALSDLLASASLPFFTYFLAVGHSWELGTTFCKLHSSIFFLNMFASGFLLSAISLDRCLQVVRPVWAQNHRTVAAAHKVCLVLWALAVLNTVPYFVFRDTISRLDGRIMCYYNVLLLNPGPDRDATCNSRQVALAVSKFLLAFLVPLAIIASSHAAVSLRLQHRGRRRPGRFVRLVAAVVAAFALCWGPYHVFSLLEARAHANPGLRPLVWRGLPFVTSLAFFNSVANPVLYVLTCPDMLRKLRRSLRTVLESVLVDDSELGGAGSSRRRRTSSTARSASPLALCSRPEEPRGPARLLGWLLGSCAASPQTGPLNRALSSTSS", "test": "Calcium mobilisation assay in CHO/CRTH2 cells", "type": "cell-based", "conditions": "n=3, read-out: EC50, increase in intracellular Ca2+ mobilisation", "protocol": "Chinese Hamster Ovary cells were transfected with CRTH2 receptors (CHO/CRTH2) and were maintained in culture in a humidified atmosphere at 37° C. (5% CO2) in Minimum Essential Medium (MEM) supplemented with 10% foetal bovine serum, 2 mM glutamine, and 1 mg ml^−1 active G418. The cells were passaged every 2-3 days. For radioligand binding assay, cells were prepared in triple-layer flasks or in 175 cm^2 square flasks (for membrane preparation). For calcium mobilisation assay, cells were grown in a 96 well plate 24 h prior to the assay at a density of 80,000 cells per well.\nCells were seeded onto poly-D-lysine coated 96-well plates at a density of 80,000 cells per well and incubated at 37° C. overnight to allow the cells to adhere. Cells were washed twice with HBSS and incubated for 1 h at 37° C. in 100 μl HBSS and 100 μl calcium-3-dye (Molecular Devices), supplemented with 4 mM probenecid. Changes in fluorescence were monitored over a 50 s time course with agonist addition at 17 s using a Flexstation (Molecular Devices)."}, "[1]": {"system": "human subjects with allergic rhinitis", "test": "Vienna Challenge Chamber study (allergen challenge, symptom scores)", "type": "in vivo", "conditions": "for reduction in total nasal symptom score compared to placebo / reduction in total eye symptom score compared to placebo: oral, both patient groups combined; for reduction in total nasal symptom score compared to placebo: FIG. 1A; for reduction in total eye symptom score compared to placebo: FIG. 1B", "source_text": "The study was a randomised, double blind, placebo controlled, two way crossover evaluation of Compound 1, given orally for eight days. There was a screening period of one week and a washout period of three weeks between the two treatment periods. There was a follow up one week after the last dose of study drug. The group of patients who received the study drug for the first treatment period and placebo for the second was designated group A, while the group of patients who received placebo for the first treatment period and the study drug for the second treatment period was designated group B.\nThe subjects underwent a complete screening assessment to determine a baseline response to allergens. This screening assessment took place one week prior to the start of dosing. • Subjects commenced dosing with Compound 1 or placebo on Day 1 (visit 2 or visit 5) of each treatment period of the study. […] Subjects took each dose (2 capsules in the morning and 2 capsules in the evening) as soon as they had finished breakfast and their evening meal respectively.\nSubjects reported back to the clinic on Day 2 of each treatment period for a 6 hour allergen challenge. The following measurements were obtained: • Total nasal symptom score (TNSS) (obstruction, rhinorrhoea, itch, sneeze) with each symptom scored on a categorical scale from 0 to 3 pre-challenge, every 15 mins from 0 to 6 h post-start of challenge • Eye symptom score (watery eyes, itchy eyes, red eyes) with each symptom scored on a categorical scale from 0 to 3 pre-challenge, every 15 mins from 0 to 6 h post-start of challenge • Other symptoms (cough, itchy throat, itchy ears) with each symptom scored on a categorical scale from 0 to 3 pre-challenge and every 15 mins from 0 to 6 h post-start of challenge\nSubjects reported back to the clinic on Day 8 of each treatment period for a 6 hour allergen challenge and the measurements obtained on Day 2 were repeated.\nA final follow-up visit was conducted one after the last dose of test article in Treatment Period 2."}, "serum IgE": {"system": "serum IgE", "test": "Measurement of serum IgE in mild to moderate asthmatics", "type": "in vivo, human", "source_text": "The effect of the CRTH2 antagonist Compound 1 compared to placebo was studied in mild to moderate asthmatics with an FEV1 of 60-80% of predicted and requiring only short acting inhaled β2-adrenergic agonists for symptomatic control.\nBlood was collected for measurement of serum IgE at the beginning of the study and after 4 weeks of dosing with Compound 1 or placebo. Total serum IgE was quantified using fluorescent immunoassay using the Phadia CAP system."}}, "data": [{"smiles": "Cc1c(Cc2cc3ccccc3cc2S(C)(=O)=O)c2cc(F)ccc2n1CC(=O)O", "note": "[Compound 3, {5-Fluoro-3-[(3-methanesulfonylnaphthalen-2-yl)methyl]-2-methylindol-1-yl}-acetic acid]", "values": [{"measurement": "IC50", "setting": "Human Th2 cells", "value": "< 100", "unit": "nM"}]}, {"smiles": "Cc1c(S(=O)(=O)c2ccc(Cl)cc2)c2cc(F)ccc2n1CC(=O)O", "note": "[[5-Fluoro-3-(4-chloro-benzenesulfonyl)-2-methyl-indol-1-yl]-acetic acid, reference compound]", "values": [{"measurement": "IC50", "setting": "Human Th2 cells", "value": "204 ± 160", "unit": "nM"}]}, {"smiles": "CCCCC[C@H](O)/C=C/[C@H]1C(=O)C[C@H](O)[C@@H]1C/C=C\\CCCC(=O)O", "note": "[PGD2, prostaglandin D2, reference compound]", "values": [{"measurement": "effect on apoptosis of Th2 cells", "setting": "Human Th2 cells; absence of IL-2, 16 hrs", "value": "anti-apoptotic effect"}, {"measurement": "EC50", "setting": "CRTH2 receptor", "value": "2.4 ± 0.5", "unit": "nM"}]}, {"smiles": "Cc1c(Cc2cccnc2S(=O)(=O)c2ccccc2)c2cc(F)ccc2n1CC(=O)O", "note": "[Compound 4, (3-{[2-(Benzenesulfonyl)pyridin-3-yl]methyl}-5-fluoro-2-methylindol-1-yl)-acetic acid]", "values": [{"measurement": "IC50", "setting": "Human Th2 cells", "value": "< 100", "unit": "nM"}]}, {"smiles": "Cc1c(Cc2ccccc2S(=O)(=O)c2ccccc2)c2cc(F)ccc2n1CC(=O)O", "note": "[Compound 2, (3-{[2-(Benzenesulfonyl)phenyl]methyl}-5-fluoro-2-methylindol-1-yl)-acetic acid]", "values": [{"measurement": "IC50", "setting": "Human Th2 cells", "value": "< 100", "unit": "nM"}]}, {"smiles": "Cc1c(Cc2ccc3ccccc3n2)c2cc(F)ccc2n1CC(=O)O", "note": "[Compound 1, (5-Fluoro-2-methyl-3-quinolin-2-ylmethyl-indol-1-yl)-acetic acid]", "values": [{"measurement": "duration of effect on nasal symptom score after the last treatment", "setting": "[1]; Group A, on placebo after 8 days of drug and three week washout", "value": "more than 4 weeks"}, {"measurement": "reduction in total nasal symptom score compared to placebo", "setting": "[1]; after 2 days of dosing", "value": 23, "unit": "%"}, {"measurement": "reduction in total eye symptom score compared to placebo", "setting": "[1]; after 2 days of dosing", "value": 45, "unit": "%"}, {"measurement": "reduction in total nasal symptom score compared to placebo", "setting": "[1]; after 8 days of dosing", "value": 37, "unit": "%"}, {"measurement": "reduction in total eye symptom score compared to placebo", "setting": "[1]; after 8 days of dosing", "value": 61, "unit": "%"}, {"measurement": "reduction in Total Nasal Symptom Score (0-6 hr)", "setting": "[1]; remaining 22 days after the last dose", "value": 36, "unit": "%"}, {"measurement": "reduction in Total Nasal Symptom Score (0-6 hr)", "setting": "[1]; remaining 28 days after the last dose", "value": 38, "unit": "%"}, {"measurement": "median reduction in IgE at endpoint", "setting": "serum IgE; after 4 weeks of dosing, p=0.033 vs placebo, Wilcoxon test", "value": "−17.0", "unit": "IU/mL"}, {"measurement": "reduction in serum IgE", "setting": "serum IgE; after treatment for 4 weeks, FIG. 3", "value": 41, "unit": "%"}, {"measurement": "IC50", "setting": "Human Th2 cells", "value": "< 100", "unit": "nM"}]}]}
